Measurements taken from US4024256A, “Method and composition for treating urinary tract infections” (priority 1975, dated 1977).
Where “and” joins values, the source holds several entries; their conditions need not be identical. Equal entries are not always repeated. Entries after “also recorded” stand apart in the source; their conditions may differ.

What was measured:
Proteus = assay: static-dynamic system, bacteriostasis against Proteus, statements over all experiments; format: cell-based, Proteus mirabilis, Proteus rettgeri, Proteus morgani; conditions: acetohydroxamic acid ≤0.9 mg/ml
Method: In this example in vitro investigations were carried out using a static-dynamic system delineating (1) bacteriostatic dose-response relation for methenamine against Proteus, and (2) a synergistic bacteriostatic dose-response relation for methenamine and acetohydroxamic acid against Proteus. […] The tubes were placed in a bacteriological incubator at 37° C. […] Incubation of the tubes at 37° and sequential dilutions were made a 6 hour intervals for 24 hours. The variables for each of eight experiments are detailed in Table 2. Bacterial colony forming units (cfu) and urine pH were determined at the beginning and at the completion of each six hour incubation. The cfu units present after six hours of incubation are graphed in FIGS. 4-15. […] When bacteriostatis was absent, the number of cfu after six hours of incubation was equal to or greater than the number of cfu at the beginning of incubation. A strain of Proteus mirabilis isolated from the urine of patients with urinary tract infections was used in most experiments. Overnight growth in brain heart infusion (BHI) broth regularly produced 10^9 cfu/ml. The overnight culture was centrifuged at 3000 rpm for 20 minutes. The supernatant was discharged, and the bacterial pellet was resuspended in an equal volume of synthetic urine. […]

bacterial urease = conditions: cited from earlier work
Proteus mirabilis [1] = assay: Proteus mirabilis infected bladder stones (zinc disc) in rats; format: in vivo, male Sprague-Dawley rats
Method: This example was carried out to illustrate the effectiveness of administering a source of hydroxamate groups, e.g., acetohydroxamic acid in eliminating the pathogenicity of urinary tract infections and in dissolving or reducing infected bladder stones.
The formation of infected bladder stones was induced in 250 gram male Sprague-Dawley rats, according to the method described in "Experimental Urolithiasis VIII -- Furadantin in Treatment of Experimental Proteus Infection with Stone Formation" C. W. Vermuelen and R. Goetz, Journal of Urology, 72:99, 1954. Rats wer anesthetized with ether and the abdominal wall swabbed with 70% ethyl alcohol. The urinary bladder was entered through a small suprapubic incision. Zinc discs, 6 mm. in diameter, were dipped into a saline suspension containing 10^7 Proteus mirabilis per ml (infective discs) and immediately inserted into the bladder. Discs handled in this fashion carried 10^5 ± 15% organisms. The bladder was closed with a single purse-string suture of 3-0 chromic catgut, and the skin was approximated with metallic clips. All animals were fasted overnight following the surgical procedure and resumed their usual diet the following day.
Rats were housed individually in stainless steel metabolic cages and were fed Purina Rat Chow pellets ad lib. Fluid was given in stainless steel cups as a solution of 5-20% sucrose in water.

Proteus rettgeri [2] = assay: dynamic study resembling a Proteus infected human bladder (FIG. 3); format: cell-based; conditions: acetohydroxamic acid 1.9 mg/ml
Method: Dynamic studies were conducted to further illustrate the synergistic effect associated with the combined presence of a source of methenamine, i.e., methenamine itself and a source of hyroxamate groups, i.e., acetohydroxamic acid in the urine. […] Utilizing a multicassetts roller pump, urine of a pH of 5.85 was pumped at 40 milliliters per hour from three reservoir flasks into three reaction chambers. […] An aqueous solution of 18 milligrams per milliliter of methenamine at a pH of 7.5 was pumped into reaction chambers 1 and 3 at a rate of two milliliters per hour yielding a final concentration of methenamine of 0.9 milligrams per milliliter. […] The reaction chambers contained gently rotating magnetic stirrers and were kept in a warm bath at 37° C. […] At 4 - 6 hour intervals the volume of urine in each reaction chamber was recorded, the pH of each reaction chamber was determined and serial dilutions were carried out for bacterial enumeration.

Proteus species [3] = assay: static study in synthetic urine: anti-bacterial effect, all Proteus species studied; format: cell-based; conditions: general statement
Method: (§1) Static studies were conducted to illustrate the synergistic effect achieved in accordance with the present invention through the combined employment of a source of methenamine, i.e., methenamine itself and a source of hydroxamate groups, i.e., acetohydroxamic acid. In order to achieve reproducibility of results with large quantities or urine required for these studies a synthetic urine was formulated based on the proportion of solutes found in the urine from normal human subjects. The composition of such urine was as follows: Brain heart infusion (BHI) broth in a final concentration of 5% was added to support bacterial growth. The pH of the synthetic urine prior to addition of the BHI broth was 5.7 - 5.8. […] In these tests the methenamine was utilized in a final concentration of 0.9 milligrams per milliliter. […] Dally and […], 1969, Analytical BioChem 28:13-21. […] These concentrations which were selected in the static studies were concentrations which would be achievable in the urine of patients with normal renal function. […] At each pH level a set of four tubes was obtained, with these tubes being as follows: 1. Urine alone (control); 2. Urine plus methenamine; 3. Urine plus acetohydroxamic acid; and 4. Urine plus acetohyroxamic acid plus methenamine. […] At varying time intervals aliquots were removed for pH determination and bacterial enumeration by serial tenfold dilution.

Proteus rettgeri [4] = assay: static study in synthetic urine: viable bacteria, Proteus rettgeri (FIG. 2); format: cell-based; conditions: acetohydroxamic acid 1.9 mg/ml
Method: as §1

[5] = characteristics of acetohydroxamic acid (Table 1), pKa; format: physicochemical
From the text: These aliphatic hydroxamic acids including formohydroxamic acid, acetohydroxamic acid, propionohydroxamic acid and isobutyhydroxamic acid. […] This source of hydroxamate groups has the following characteristics: […]

Proteus mirabilis [6] = assay: dynamic model of the urinary tract (FIGS. 16, 17); format: cell-based
Method: This example was carried out using a dynamic model as described in connection with Example 2. […] Proteus species, isolated from the urine of patients with known urinary infection, were maintained in the laboratory by monthly transfer on agar […]. These organisms grew to about 10^9 colony forming units (cfu) per ml after overnight growth at 37° C in brain heart infusion broth (BHI). […] The pH of this synthetic urine was 5.85. […] In this dynamic system urine with or without acetohydroxamic acid was pumped at 48 ml/hr from reservoirs via an auto-analyzer pump into reaction chambers which were incubated in a shaking water bath at 37° C. […] Every six hours the reaction chambers were emptied except for a 5 ml residual, and the sequence was repeated. In these experiments the pH, ammonia concentration and cfu per ml urine were determined for each reaction chamber at the end of each six hour period.

Proteus species [7] = assay: static study in synthetic urine: inhibition of alkalinization by Proteus species; format: cell-based; conditions: acetohydroxamic acid 1.9 mg/ml
Method: as §1

[8] = individual animal, average of day individual values, listed as AHA
[9] = individual animal, listed as AHA

CC(=O)NO [acetohydroxamic acid]
bacteriostatic effect (Proteus): no bacteriostatic effect
urease inhibiting effect (bacterial urease): appear to possess the greatest urease inhibiting effect
urine pH (group) (Proteus mirabilis [1]; acetohydroxamic acid treated animals): remained in the normal range; also recorded: in the physiological range
gross evidence of pyelonephritis or renal stone formation (group) (Proteus mirabilis [1]; autopsy): none had gross evidence of pyelonephritis or renal stone formation
kidney histology (group) (Proteus mirabilis [1]; autopsy): nearly all had normal kidneys histologically
Autopsy Gross Kidney (Proteus mirabilis [1]; individual animal): Normal
Autopsy Urine bacteria/ml (Proteus mirabilis [1]; individual animal): > 10^5 bacteria/ml
survival of animal (Proteus mirabilis [1]; individual animal): Expired
Urine pH (Proteus mirabilis [1]; [8]): 7.4 and 6.6 and 6.7 and 7.0 and 6.3 and 6.5 and 6.4
Autopsy Microscopic Kidney (Proteus mirabilis [1]; [9]): Pyelonephritis; also recorded: Normal
Autopsy Stone Composition (Proteus mirabilis [1]; [9]): Struvite; also recorded: Apatite
Autopsy Stone wt. (Proteus mirabilis [1]; [9]): 12 mg and 4 mg and 21 mg and 11 mg and 1 mg and 19 mg and 3 mg and 7 mg
tissue damage and virulence of the disease (Proteus mirabilis [1]; infected rats): tissue damage and virulence of the disease decreased
P, difference in mean urine pH between control and treated groups (Proteus mirabilis [1]; rat, in vivo): < 0.01
P, difference in stone formation between control and treated groups (Proteus mirabilis [1]; rat, in vivo): < 0.01
Proteus mirabilis in urine at autopsy (group) (Proteus mirabilis [1]; seventh day): greater than 10^5 per ml
bladder stone formation (group) (Proteus mirabilis [1]; seventh day): minimal; also recorded: significantly less bladder stone formation than the control rats
concentration of acetohydroxamic acid in urine, mean (150 mg offered daily orally, average 100 mg ingested): 2880 µg/mL
Urine Acetohy. [8]: .3 mg/mL and 1.5 mg/mL and 2.5 mg/mL and 1.3 mg/mL and .9 mg/mL and 1.6 mg/mL and .5 mg/mL
alkalinization (Proteus rettgeri [2]): alkalinization of Proteus was inhibited
bacteriostatic effect (Proteus rettgeri [2]): minor bacteriostatic effect
anti-bacterial effect with regard to bacteria of the species Proteus (Proteus species [3]): slight anti-bacterial effect
bacteriostatic effect (Proteus rettgeri [4]): slight bacteriostatic effect
number of bacteria (Proteus rettgeri [4]; within eight to eighteen hours): ~10^8 per milliliter
pKa [5]: 9.32
effect on pH (Proteus mirabilis [6]; acetohydroxamic acid 1 mg/ml without methenamine): maintained the pH at normal levels
bacterial growth (Proteus mirabilis [6]; acetohydroxamic acid, higher concentration 1.0 mg/ml (FIG. 16)): slightly inhibited bacterial growth
inhibition of alkalinization (Proteus species [7]; synthetic urine, 37°): inhibited alkalinizaton for the first eight hours
time within which effect as urease inhibitor was overcome (Proteus species [7]; bacterial proliferation leading to alkaline pH): ≤ 24 h
